Peptide text beside a SMILES is read from it.
How the values were obtained:
skin equivalents (SEs) = assay: H&E and Warthin Starry staining of skin equivalents; type: cell-based, human; conditions: day 20
Text: Two skin equivalents (SEs) were used from one donor.
The analysis was achieved using the Warthin Starry assay using our recently published method (Joly-Tonetti et al 2016) and hematoxylin&eosin (H&E) staining.
The SEs were stained with Warthin Starry stain to visualise and quantify the melanin in sections. The SEs were removed from culture on day 20 and washed in PBS. They were then flash frozen in liquid nitrogen and mounted in OCT for sectioning. 10 μm sections were cut using a cryostat, the sections collected on slides and fixed in Acetone for 10 mins. The OCT was removed from the section by washing in acidulated water for 20 mins. The slides were then incubated in 1% silver nitrate solution for 1 hour at 43° C. […] The slides were stained for 2 mins then the staining was stopped by running the slides under hot tap water. Slides were then mounted using Histomount. Brightfield images were captured using a Nikon Eclipse microscope. Image analysis of the melanin density in sections was performed using Image J and densitometric thresholding. Results are presented in pixel intensity units. For the hematoxylin&eosin (H&E) staining, the SEs were flash frozen, sectioned and fixed as above. The slides were then washed in dH2O to remove the OCT for 20 mins. Haematoxylin was filtered using filter paper into a Coplin jar. Further Coplin jars were also prepared containing the following: Tap Water, Scott's Tap Water, 0.25% Eosin, 50% Ethanol, 70% Ethanol, 90% Ethanol, Ethanol and Histoclear. The slides were then placed into Haematoxylin for 2 mins, and then placed into tap water for 30 secs, Scott's Tap Water for 1 min & Eosin for 2 mins. The slides were then dehydrated through the Ethanol (1 min each) then placed into Histoclear for 2 mins and mounted using Histomount. Brightfield images were captured using a Nikon Eclipse microscope.

[1] = tested on: Pigmented skin equivalents (SEs), Melanoderms Mel-300-A (donor) and Mel-300-C-2 (donor); assay: Skin equivalent culture, photographic assessment of pigmentation; type: cell-based, human
Description: The skin equivalent surface area was 63.6 mm^2. Other equipment used included SMZ1000 Stereo Microscope (Nikon); UC30 Microscope Camera (Olympus); Phosphate-Buffered Saline (PBS); 6-well Tissue Culture Plates (Sarstedt); Image J software (https://imagej.nih.gov); Paintshop Photo Pro Software (Corel). The Melanoderms were prepared by carefully removing the agarose with sterile forceps and placing them in pre-warmed culture medium (37° C.) for an hour prior to treatment. The Melanoderms were then topically treated (without rubbing) with 25 μl of the various peptides, dissolved in dH2O at 10 mg/ml. […] The SEs were examined and removed from culture when skin darkening became visible. The pigmentation of the Melanoderms was macroscopically assessed by capturing high-resolution images using the Olympus microscope camera. […] They were then placed into a 6-well plate containing 1 ml PBS/well and images captured at ×8 magnification. The images were then processed using Image J & Paintshop Photo Pro software, to determine a quantifiable pixel area, which equated to the level of pigmentation present in the skin equivalent. The image brightness was normalised and the image gray-scaled using Paintshop Photo Pro, then Image J was used to threshold the image. The pigmentation was quantified by assessing total pixel area of pigmentation coverage in a fixed sample area. An ANOVA test (Dunnett's post-test) was used for the statistical analysis. Three different experiments were conducted. In the first, skin equivalents from both donors were included, and in experiment 2 and 3, only the […] donor was included. The SE of the […] donor from the first experiment received 5 treatments of 25 μl of peptide solution at 10 mg/ml; starting on the first day following receipt then on days 3, 5, 9 and 12. Peptides 1 (SEQ ID NO: 2), 3 (SEQ ID NO: 3) and 4 (SEQ ID NO: 4) were tested. The images were taken on Day 14. In experiment 2, peptide 3 and 4 were selected for testing to see if it had any efficacy in reducing melanin content or the distribution of melanin throughout the SE. This time, 5 SEs were used per treatment to improve statistical robustness. The experiment was continued for 20 days with treatments on days 0, 3, 7 and 12 and medium changes every other day. In experiment 3 a more highly pigmented SE ([…] donor melanocytes) was used and with an increased sample size with n=7 per treatment. […] Treatment was repeated on days 5, 9, 12 and 15 with medium changed every other day.

skin equivalents = assay: Total melanin assay; type: cell-based, human; conditions: experiment 2, 10 mg/ml topical, day 20, n=4
Description: The skin equivalents used in this study was from the same donors as in Example 2. The determination of the total melanin content of the skin equivalent was determined using a total melanin assay.
The total melanin content of the SE was calculated by dissolving the SE in Soluene and reading the absorbance against a standard curve. The SEs were removed from culture on day 20 and washed with PBS. They were then transferred to a glass centrifuge tube and 500 μl Soluene added. The tubes were then covered with […]®, gently vortexed and placed on the Thermomixer at 50° C. for 1 hour. The tubes were then gently vortexed and 150 μl of the sample and synthetic melanin standards pipetted in triplicate into a glass 96 well plate. The absorbance was then measured at 490 nm on a Spectrophotometer. Results are presented in μg/ml against a standard curve. The change of melanin content is expressed as a percentage change versus vehicle control samples. An ANOVA (with Dunnett's post-test) was used for the statistical analysis.
Three experiments were conducted, and the same donors were used as in Example 2. The sample sizes were as follows: experiment 1 n=2, experiment 2 n=4 and experiment 3 n=7. Peptides 1 (SEQ ID NO: 2), 3 (SEQ ID NO: 3) and 4 (SEQ ID NO: 4) were tested.

[2] = Stability study, purity of FOL-005 by HPLC on storage; type: physicochemical
Description: FOL-005 lyophilized powder was dissolved in phosphate/citrate buffer of pHs 5, 6, 7 or 7.6. Samples of each formulation were analysed for purity using high-pressure liquid chromatography after up to 3 months of storage at 25° C. respectively. In addition, an essentially water-free formulation of FOL-005 was stored at 25° C. and samples were analysed for purity after up to 12 months of storage.
FOL-005/sucrose lyophilized powder was formulated to a suspension in dried or un-dried isopropyl myristate, paraffin oil/petrolatum, Sorbitan laurate and glyceryl behenate. Samples of each formulation were analysed for purity using high pressure liquid chromatography after up to 12 months of storage at 2-8, 25 and 30° C. respectively.

[3] = Solubility of FOL-005 in propylene glycol; type: physicochemical; conditions: in propylene glycol at room temperature

degradation of FOL-005 ([2]; at various pH (buffers)) | degradation of FOL-005 ([2]; water free conditions) | solubility of FOL-005 [3] | Compound | melanin content and distribution in SE sections (Warthin Starry) (skin equivalents (SEs); one of the donors (FIG. 3A)) | melanin content and distribution in SE sections (Warthin Starry) (skin equivalents (SEs); second donor (FIG. 3B-D)) | pigmentation of skin equivalents (photographic assessment) compared to vehicle control ([1]; experiment 1, donor, 5 topical treatments of 25 μl at 10 mg/ml in dH2O, images Day 14) | pigmentation of skin equivalents (photographic assessment) compared to vehicle control ([1]; experiment 2, donor, 10 mg/ml, 20 days, n=5) | pigmentation of skin equivalents (photographic assessment) compared to vehicle control ([1]; experiment 3, more highly pigmented SE (donor), 10 mg/ml, n=7) | total melanin content of skin equivalents vs vehicle control (skin equivalents)
– | – | – | Ala-Ala-His-Met (AAHM; (1)..(4) Peptide 3) | reduction in melanin in the upper epidermal layers | did not appear to have any obvious effect | equivalent or slightly less pigmented than the vehicle control | slight decrease in pigmentation | little effect | no difference
degraded | very limited | 160 µg/mL | CC[C@H](C)[C@H](NC(=O)[C@H](CC(=O)O)NC(=O)CNC(=O)[C@H](CC(=O)O)NC(=O)[C@H](Cc1ccc(O)cc1)NC(=O)[C@@H](NC(=O)[C@H](CC(=O)O)NC(=O)[C@@H](N)C(C)C)[C@@H](C)O)C(=O)N[C@@H](CO)C(=O)N[C@H](C(=O)N[C@H](C(=O)N[C@@H](Cc1ccc(O)cc1)C(=O)NCC(=O)N[C@@H](CC(C)C)C(=O)N[C@@H](CCCNC(=N)N)C(=O)O)C(C)C)C(C)C [FOL-005] (H-VDTYDGDISVVYGLR-OH; N-terminus and C-terminus assumed) | – | – | – | – | – | –
